Assay results from ChEMBL document CHEMBL4665869, “New thiazolopyrimidine as anticancer agents: Synthesis, biological evaluation, DNA binding, molecular modeling and ADMET study” (Bioorg Med Chem Lett, 2020).
≈ marks a conversion by molar mass, not a printed value.

Assays:
[1] = tested on: LOX IMVI; experiment: Growth inhibition of human LOX IMVI cells at 10 uM relative to control; type: functional; details: read-out: GI
[2] = tested on: MDA-MB-468; experiment: Growth inhibition of human MDA-MB-468 cells at 10 uM relative to control; type: functional; details: read-out: GI
[3] = tested on: T47D; experiment: Growth inhibition of human T47D cells at 10 uM relative to control; type: functional; details: read-out: GI
[4] = tested on: CCRF-CEM; experiment: Growth inhibition of human CCRF-CEM cells at 10 uM relative to control; type: functional; details: read-out: GI
[5] = tested on: HL-60(TB); experiment: Growth inhibition of human HL-60(TB) cells at 10 uM relative to control; type: functional; details: read-out: GI
[6] = tested on: K562; experiment: Growth inhibition of human K562 cells at 10 uM relative to control; type: functional; details: read-out: GI
[7] = tested on: MOLT-4; experiment: Growth inhibition of human MOLT-4 cells at 10 uM relative to control; type: functional; details: read-out: GI
[8] = tested on: RPMI-8226; experiment: Growth inhibition of human RPMI-8226 cells at 10 uM relative to control; type: functional; details: read-out: GI
[9] = tested on: SR; experiment: Growth inhibition of human SR cells at 10 uM relative to control; type: functional; details: read-out: GI
[10] = tested on: A549; experiment: Growth inhibition of human A549 cells at 10 uM relative to control; type: functional; details: read-out: GI
[11] = tested on: HOP-62; experiment: Growth inhibition of human HOP-62 cells at 10 uM relative to control; type: functional; details: read-out: GI
[12] = tested on: HOP-92; experiment: Growth inhibition of human HOP-92 cells at 10 uM relative to control; type: functional; details: read-out: GI
[13] = tested on: NCI-H226; experiment: Growth inhibition of human NCI-H226 cells at 10 uM relative to control; type: functional; details: read-out: GI
[14] = tested on: NCI-H23; experiment: Growth inhibition of human NCI-H23 cells at 10 uM relative to control; type: functional; details: read-out: GI
[15] = tested on: NCI-H322M; experiment: Growth inhibition of human NCI-H322M cells at 10 uM relative to control; type: functional; details: read-out: GI
[16] = tested on: NCI-H460; experiment: Growth inhibition of human NCI-H460 cells at 10 uM relative to control; type: functional; details: read-out: GI
[17] = tested on: NCI-H522; experiment: Growth inhibition of human NCI-H522 cells at 10 uM relative to control; type: functional; details: read-out: GI
[18] = tested on: SW-620; experiment: Growth inhibition of human SW-620 cells at 10 uM relative to control; type: functional; details: read-out: GI
[19] = tested on: COLO 205; experiment: Growth inhibition of human COLO 205 cells at 10 uM relative to control; type: functional; details: read-out: GI
[20] = tested on: HCC 2998; experiment: Growth inhibition of human HCC 2998 cells at 10 uM relative to control; type: functional; details: read-out: GI
[21] = tested on: HCT-116; experiment: Growth inhibition of human HCT-116 cells at 10 uM relative to control; type: functional; details: read-out: GI
[22] = tested on: HCT-15; experiment: Growth inhibition of human HCT-15 cells at 10 uM relative to control; type: functional; details: read-out: GI
[23] = tested on: HT-29; experiment: Growth inhibition of human HT-29 cells at 10 uM relative to control; type: functional; details: read-out: GI
[24] = tested on: KM12; experiment: Growth inhibition of human KM12 cells at 10 uM relative to control; type: functional; details: read-out: GI
[25] = tested on: SF-268; experiment: Growth inhibition of human SF-268 cells at 10 uM relative to control; type: functional; details: read-out: GI
[26] = tested on: SF-295; experiment: Growth inhibition of human SF-295 cells at 10 uM relative to control; type: functional; details: read-out: GI
[27] = tested on: SF-539; experiment: Growth inhibition of human SF-539 cells at 10 uM relative to control; type: functional; details: read-out: GI
[28] = tested on: SNB-19; experiment: Growth inhibition of human SNB-19 cells at 10 uM relative to control; type: functional; details: read-out: GI
[29] = tested on: SNB-75; experiment: Growth inhibition of human SNB-75 cells at 10 uM relative to control; type: functional; details: read-out: GI
[30] = tested on: U-251; experiment: Growth inhibition of human U-251 cells at 10 uM relative to control; type: functional; details: read-out: GI
[31] = tested on: Malme-3M; experiment: Growth inhibition of human Malme-3M cells at 10 uM relative to control; type: functional; details: read-out: GI
[32] = tested on: M14; experiment: Growth inhibition of human M14 cells at 10 uM relative to control; type: functional; details: read-out: GI
[33] = tested on: MDA-MB-435; experiment: Growth inhibition of human MDA-MB-435 cells at 10 uM relative to control; type: functional; details: read-out: GI
[34] = tested on: SK-MEL-2; experiment: Growth inhibition of human SK-MEL-2 cells at 10 uM relative to control; type: functional; details: read-out: GI
[35] = tested on: SK-MEL-28; experiment: Growth inhibition of human SK-MEL-28 cells at 10 uM relative to control; type: functional; details: read-out: GI
[36] = tested on: SK-MEL-5; experiment: Growth inhibition of human SK-MEL-5 cells at 10 uM relative to control; type: functional; details: read-out: GI
[37] = tested on: UACC-257; experiment: Growth inhibition of human UACC-257 cells at 10 uM relative to control; type: functional; details: read-out: GI
[38] = tested on: UACC-62; experiment: Growth inhibition of human UACC-62 cells at 10 uM relative to control; type: functional; details: read-out: GI
[39] = tested on: IGROV-1; experiment: Growth inhibition of human IGROV-1 cells at 10 uM relative to control; type: functional; details: read-out: GI
[40] = tested on: OVCAR-4; experiment: Growth inhibition of human OVCAR-4 cells at 10 uM relative to control; type: functional; details: read-out: GI
[41] = tested on: OVCAR-5; experiment: Growth inhibition of human OVCAR-5 cells at 10 uM relative to control; type: functional; details: read-out: GI
[42] = tested on: OVCAR-8; experiment: Growth inhibition of human OVCAR-8 cells at 10 uM relative to control; type: functional; details: read-out: GI
[43] = tested on: NCI/ADR-RES; experiment: Growth inhibition of human NCI/ADR-RES cells at 10 uM relative to control; type: functional; details: read-out: GI
[44] = tested on: SK-OV-3; experiment: Growth inhibition of human SK-OV-3 cells at 10 uM relative to control; type: functional; details: read-out: GI
[45] = tested on: 786-0; experiment: Growth inhibition of human 786-0 cells at 10 uM relative to control; type: functional; details: read-out: GI
[46] = tested on: A498; experiment: Growth inhibition of human A498 cells at 10 uM relative to control; type: functional; details: read-out: GI
[47] = tested on: ACHN; experiment: Growth inhibition of human ACHN cells at 10 uM relative to control; type: functional; details: read-out: GI
[48] = tested on: CAKI-1; experiment: Growth inhibition of human CAKI-1 cells at 10 uM relative to control; type: functional; details: read-out: GI
[49] = tested on: RXF 393; experiment: Growth inhibition of human RXF 393 cells at 10 uM relative to control; type: functional; details: read-out: GI
[50] = tested on: SN12C; experiment: Growth inhibition of human SN12C cells at 10 uM relative to control; type: functional; details: read-out: GI
[51] = tested on: TK-10; experiment: Growth inhibition of human TK-10 cells at 10 uM relative to control; type: functional; details: read-out: GI
[52] = tested on: UO-31; experiment: Growth inhibition of human UO-31 cells at 10 uM relative to control; type: functional; details: read-out: GI
[53] = tested on: PC-3; experiment: Growth inhibition of human PC-3 cells at 10 uM relative to control; type: functional; details: read-out: GI
[54] = tested on: DU-145; experiment: Growth inhibition of human DU-145 cells at 10 uM relative to control; type: functional; details: read-out: GI
[55] = tested on: MCF7; experiment: Growth inhibition of human MCF7 cells at 10 uM relative to control; type: functional; details: read-out: GI
[56] = tested on: MDA-MB-231; experiment: Growth inhibition of human MDA-MB-231 cells at 10 uM relative to control; type: functional; details: read-out: GI
[57] = tested on: Hs-578T; experiment: Growth inhibition of human Hs-578T cells at 10 uM relative to control; type: functional; details: read-out: GI
[58] = tested on: BT-549; experiment: Growth inhibition of human BT-549 cells at 10 uM relative to control; type: functional; details: read-out: GI
[59] = target: DNA; experiment: Displacement of methyl green from DNA (unknown origin) assessed as DNA intercalation after 24 hrs by colorimetric assay; type: nucleic-acid assay

## COc1ccc(/C=C/C2=CC(c3ccc(OC)cc3)N3C=CSC3=N2)cc1 (centres undefined)
[1]
  inhibition of growth at 10 µM: < 10%
[2]
  inhibition of growth at 10 µM: < 10%
[3]
  inhibition of growth at 10 µM: < 10%
[4]
  inhibition of growth at 10 µM: < 10%
[5]
  inhibition of growth at 10 µM: < 10%
[6]
  inhibition of growth at 10 µM: < 10%
[7]
  inhibition of growth at 10 µM: < 10%
[8]
  inhibition of growth at 10 µM: < 10%
[9]
  inhibition of growth at 10 µM: < 10%
[10]
  inhibition of growth at 10 µM: < 10%
[11]
  inhibition of growth at 10 µM: < 10%
[12]
  inhibition of growth at 10 µM: 10.1%
[13]
  inhibition of growth at 10 µM: < 10%
[14]
  inhibition of growth at 10 µM: < 10%
[15]
  inhibition of growth at 10 µM: < 10%
[16]
  inhibition of growth at 10 µM: < 10%
[17]
  inhibition of growth at 10 µM: < 10%
[18]
  inhibition of growth at 10 µM: < 10%
[19]
  inhibition of growth at 10 µM: < 10%
[20]
  inhibition of growth at 10 µM: < 10%
[21]
  inhibition of growth at 10 µM: < 10%
[22]
  inhibition of growth at 10 µM: < 10%
[23]
  inhibition of growth at 10 µM: < 10%
[24]
  inhibition of growth at 10 µM: < 10%
[25]
  inhibition of growth at 10 µM: < 10%
[26]
  inhibition of growth at 10 µM: < 10%
[27]
  inhibition of growth at 10 µM: < 10%
[28]
  inhibition of growth at 10 µM: < 10%
[29]
  inhibition of growth at 10 µM: < 10%
[30]
  inhibition of growth at 10 µM: < 10%
[31]
  inhibition of growth at 10 µM: < 10%
[32]
  inhibition of growth at 10 µM: < 10%
[33]
  inhibition of growth at 10 µM: < 10%
[34]
  inhibition of growth at 10 µM: < 10%
[35]
  inhibition of growth at 10 µM: < 10%
[36]
  inhibition of growth at 10 µM: < 10%
[37]
  inhibition of growth at 10 µM: 11.9%
[38]
  inhibition of growth at 10 µM: < 10%
[39]
  inhibition of growth at 10 µM: < 10%
[40]
  inhibition of growth at 10 µM: < 10%
[41]
  inhibition of growth at 10 µM: < 10%
[42]
  inhibition of growth at 10 µM: < 10%
[43]
  inhibition of growth at 10 µM: < 10%
[44]
  inhibition of growth at 10 µM: < 10%
[45]
  inhibition of growth at 10 µM: < 10%
[46]
  inhibition of growth at 10 µM: < 10%
[47]
  inhibition of growth at 10 µM: < 10%
[48]
  inhibition of growth at 10 µM: < 10%
[49]
  inhibition of growth at 10 µM: < 10%
[50]
  inhibition of growth at 10 µM: < 10%
[51]
  inhibition of growth at 10 µM: < 10%
[52]
  inhibition of growth at 10 µM: < 10%
[53]
  inhibition of growth at 10 µM: 17.2%
[54]
  inhibition of growth at 10 µM: < 10%
[55]
  inhibition of growth at 10 µM: < 10%
[56]
  inhibition of growth at 10 µM: < 10%
[57]
  inhibition of growth at 10 µM: < 10%
[58]
  inhibition of growth at 10 µM: < 10%
[59]
  IC50: 47.75 µg/mL (≈ 127 µM)
